From publication PMC10817097, “Caffeic Acid Phosphanium Derivatives: Potential Selective Antitumor, Antimicrobial and Antiprotozoal Agents” (International Journal of Molecular Sciences, 2024)
“And” between values parts separate entries of the source, which are not always exact repeats. Identical values can stand only once. Like-named read-outs stand apart in the source and are kept apart here.

How the values were obtained:
[1] = Equilibrium surface tension measurements (Wilhelmy plate); assay type: physicochemical; details: 25 °C; for cmc (critical micelle concentration) / γcmc (surface tension at the cmc): aqueous solution; for Acmc (surface area per head group at surface saturation): water/air interface, from Gibbs adsorption isotherm
Method: The physicochemical properties of the compounds were investigated by the measurements of surface tension of their aqueous solutions. The critical micelle concentration (cmc), the surface tension value at the cmc (γcmc), and the surface area per head group at the surface saturation (Acmc) were determined.
The equilibrium surface tension measurements were carried out according to the procedure described previously. The Wilhelmy plate technique was used for the determination of the solvent surface tension values. Measurements were performed with a Krüss 100 MK2 tensiometer. All samples were prepared by dissolving amphiphilic compounds in deionized water. The stock solutions were prepared in a volumetric flask. The measurements were performed at 25 ± 0.1 °C. The measurements of equilibrium surface tension were taken repeatedly. The values were recorded every 360 s. The measurement was stopped if the difference between the values of two successive measurements was less than 5 × 10^−5 N·m^−1. The breakpoint of the linear parts of the surface tension vs. log c curve was used for the determination of the critical micelle concentration (cmc) and surface tension at the cmc (γcmc). The adsorbed amount of surfactant Γcmc was also determined from surface tension data. The value was calculated using the Gibbs adsorption isotherm: Γcmc=dγ/dlogcT/2.303iRT where γ represents the surface tension (mN/m), c is the concentration of surfactant, i represents the prefactor (CAP have i = 2), R is the gas constant, and T represents the absolute temperature. The slope below the cmc in the surface tension vs. log c plots was used for the determination of the surface excess. The values of area per head group at the water/air interface (Acmc) were obtained from the following equation: Acmc=10^18/NAΓcmc where NA represents the Avogadros constant.

[2] = tested on: Acanthamoeba trophozoites; test: Amoebicidal activity assay, both strains; assay type: cell-based
Method: The activity against two clinical isolates of free-living amoebae, Acanthamoeba lugdunensis (strain AcaVNAK02) and Acanthamoeba quina (strain AcaVNAK03), both belonging to the T4 genotype, was tested in vitro as previously described. The trophozoites were cultivated in 25 cm^2 tissue culture flasks under axenic conditions in peptone-yeast extract-glucose medium (PYG). The cultivation was carried out under aerobic conditions at laboratory temperature. For the experiments, a fresh 72 h culture was used. Acanthamoebae adherent to flasks represented the trophozoite form and was used in the subsequent assay. Experiments were carried out in 96-well microtiter plates under sterile conditions at 37 °C. Each well was seeded with 100 µL (2 × 10^5 cells mL^−1) of a trophozoite suspension. Then, 100 µL of a freshly prepared medium containing a tested compound at 6 different concentrations was added to all wells, except for the untreated control wells that received 100 µL of the pure medium. Each compound was tested at final concentrations of 500, 250, 125, 62.5, 31.25, and 15.6 µM. The reduction of trophozoites was recorded after 24 h by counting the surviving cells in a Bürker–Türk hemocytometer. […] The viability of trophozoites was determined by trypan blue exclusion. […]

[3] = set-up: method as in PMID 11743793; details: cited from earlier work
[4] = tested on: non-pathogenic Neff's strain of Acanthamoeba castellanii; set-up: method as in Sifaoui et al. (2017) 44; details: A. castellanii Neff, 96 h of incubation, ref Sifaoui et al. (2017) 44; cited from earlier work
[5] = tested on: the other tested bacteria and the strain of Candida albicans; test: MIC/MBC, other tested bacteria and Candida albicans; assay type: cell-based; details: listed as caffeic acid
Method: The antimicrobial activity of caffeic acid and its semi-synthetic derivates was tested against Gram-positive (Staphylococcus aureus CCM 4750, methicillin-resistant; Staphylococcus aureus CCM 4223, methicillin-susceptible; Enterococcus faecalis CCM 4224) and Gram-negative bacteria (Pseudomonas aeruginosa CCM 3955; Escherichia coli CCM 3954; Klebsiella pneumoniae CCM 4415; Proteus mirabilis CCM 7188), and one strain of a yeast Candida albicans (CCM 8267). Microbial strains were purchased from the Czech Collection of Microorganisms, Brno, Czech Republic, and preserved in aliquots in cryoprotective media at −20 °C until the testing. Revival of cryoprotected bacteria took place by overnight cultivation on blood agar and an additional passage on blood agar. Minimal inhibitory concentrations (MIC) against bacteria were detected by broth microdilution test in sterile 96-well U-shaped microtiter plates (Roll s.a.s., Piove di Sacco, Italy) according to the EUCAST recommendations. The test was performed in 100 μL volumes in microtiter plate wells with a final bacterial concentration of 5 × 10^5 CFU·mL^−1. […] The minimal bactericidal/fungicidal concentrations (MBC/MFC) were detected by point-inoculation of 5 μL aliquots from test wells without visible growth on solid agar media free of antimicrobials. […]

| Compound | cmc (critical micelle concentration) [1] | γcmc (surface tension at the cmc) [1] | Acmc (surface area per head group at surface saturation) [1] | times higher inhibitory activity than phosphanium salts of rosmarinic acid ([2]; comparison to compounds of ref 15) | plasma levels of caffeic acid ([3]; 1 h after consumption of 300 mL red wine (about 2.8 mg caffeic acid)) | plasma levels of caffeic acid ([3]; 1 h after consumption of 300 mL red wine, approx. conversion) | IC50 (50% growth inhibition) [4] | MIC/MBC [5] | EC50 ([2]; Acanthamoeba, after 24 h) |
| --- | --- | --- | --- | --- | --- | --- | --- | --- | --- |
| CC(=O)Oc1ccc(/C=C/C(=O)OCCCCCC[P+](c2ccccc2)(c2ccccc2)c2ccccc2)cc1OC(C)=O [CAP 6, P,P,P-triphenyl-6-{(2E)-3-[3,4-(diacetyloxy)penyl]prop-2-enoyloxy}hexane-1-phosphanium bromide] | 7.5 × 10^−3 mol·dm^−3 | 36.4 mN·m^−1 | 0.84 nm^2 | more than 15 times |  |  |  |  |  |
| CC(=O)Oc1ccc(/C=C/C(=O)OCCCCCCCCCC[P+](c2ccccc2)(c2ccccc2)c2ccccc2)cc1OC(C)=O [CAP 10, P,P,P-triphenyl-10-{(2E)-3-[3,4-(diacetyloxy)penyl]prop-2-enoyloxy}decane-1-phosphanium bromide] | 2.2 × 10^−3 mol·dm^−3 | 37.1 mN·m^−1 | 1.02 nm^2 |  |  |  |  |  |  |
| CC(=O)Oc1ccc(/C=C/C(=O)OCCCCCCCCCCCC[P+](c2ccccc2)(c2ccccc2)c2ccccc2)cc1OC(C)=O [CAP 12, P,P,P-triphenyl-12-{(2E)-3-[3,4-(diacetyloxy)penyl]prop-2-enoyloxy}dodecane-1-phosphanium bromide] | 1.0 × 10^−3 mol·dm^−3 | 39.4 mN·m^−1 | 1.33 nm^2 |  |  |  |  |  |  |
| CC(=O)Oc1ccc(/C=C/C(=O)OCCCCCCCC[P+](c2ccccc2)(c2ccccc2)c2ccccc2)cc1OC(C)=O [CAP 8, P,P,P-triphenyl-8-{(2E)-3-[3,4-(diacetyloxy)penyl]prop-2-enoyloxy}okctane-1-phosphanium bromide] | 5.2 × 10^−3 mol·dm^−3 | 37.7 mN·m^−1 | 0.82 nm^2 |  |  |  |  |  |  |
| O=C(O)C=Cc1ccc(O)c(O)c1 [CA, 3-(3,4-dihydroxyphenyl)-2-propenoic acid, reference compound] |  |  |  |  | 4.9 ± 0.3 ng/mL | approx. 27.2 nM | > 100 µg/mL | exceeded 6900 μM and > 1200 μg/mL | ≥ 3 mM |
